Experimental data as given in patent US20240067693A1, “POLYPEPTIDES AND USES THEREOF” (MEDIMMUNE LIMITED, priority 2020, published 2024).
Numbered stars: 1 amine (or outer) side, 2 acyl side, 3 side chain; on linkers, the order of the positions; unused ones are H or OH. Bridge positions count the residues as written; N and C are the ends. Square brackets hold non-standard residues; d marks the D form. Side chains are listed from the residue outwards. Peptide text beside a SMILES is read from it. * marks the point of attachment. C18 diacid = O=C(O)CCCCCCCCCCCCCCCCC(=O)*; γGlu = O=C(O)[C@H](CCC(=O)[*:2])N[*:1]; Aib = CC(C)(N)C(=O)O

Key:
[1] = target: T1, human calcitonin receptor (hCTR) (Homo sapiens, UniProt P30988); assay: cAMP production in 1321N1 cells with stable recombinant expression of human calcitonin receptor (hCTR); assay type: cell-based; conditions: cAMP, 1321N1 cells, assay buffer with 0.1% BSA; read-out: EC50 (pM) hCTR
T1 construct: expressed in transfected cells
T1 sequence (P30988 25-474): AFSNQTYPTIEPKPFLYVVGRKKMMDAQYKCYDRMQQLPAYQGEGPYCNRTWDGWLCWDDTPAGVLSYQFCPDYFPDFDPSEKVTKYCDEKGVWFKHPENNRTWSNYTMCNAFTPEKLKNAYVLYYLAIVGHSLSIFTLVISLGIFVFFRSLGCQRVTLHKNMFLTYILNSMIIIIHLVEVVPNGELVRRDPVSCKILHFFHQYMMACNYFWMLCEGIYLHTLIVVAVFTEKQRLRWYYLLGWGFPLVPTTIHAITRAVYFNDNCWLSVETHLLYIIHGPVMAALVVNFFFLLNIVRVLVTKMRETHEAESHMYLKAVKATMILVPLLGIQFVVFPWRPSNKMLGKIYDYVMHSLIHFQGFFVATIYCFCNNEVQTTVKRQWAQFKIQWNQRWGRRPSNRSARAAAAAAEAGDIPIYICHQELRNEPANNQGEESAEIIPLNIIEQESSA
Method in brief: (§1)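 Thawed cells in HBSS/0.1% BSA/25 mM HEPES pH 7.4 with 0.5 mM IBMX were incubated with peptides 30 min at room temperature; cAMP read by HTRF. EC50 from 4-parameter fit of % activation relative to maximal amylin or calcitonin effect.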

[2] = target: T2, human amylin receptor (calcitonin receptor co-expressed with receptor activity modifying protein, RAMP3) (hAMYR3) (Homo sapiens, UniProt O60896+P30988); assay: cAMP production in 1321N1 cells with stable recombinant expression of human amylin receptor (hAMYR3); assay type: cell-based; conditions: for Ratio (selectivity hAMYR vs hCTR, ratio of EC50 values at the two receptors): EC50 hCTR / EC50 hAMYR3; for EC50: cAMP, 1321N1 cells, assay buffer with 0.1% BSA, read-out: EC50 (pM) hAMYR3
T2 construct: expressed in transfected cells
T2 sequence (P30988 25-474): T1 sequence (P30988 25-474)
T2 sequence (O60896 24-148 partner): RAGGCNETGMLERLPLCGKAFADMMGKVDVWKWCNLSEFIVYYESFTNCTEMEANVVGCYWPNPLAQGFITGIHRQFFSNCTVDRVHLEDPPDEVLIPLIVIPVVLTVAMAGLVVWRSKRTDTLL
Method in brief: as §1

EC50 [1] [pM] | Ratio (selectivity hAMYR vs hCTR, ratio of EC50 values at the two receptors) [2] | EC50 [2] [pM] | Structure (SMILES)
3420 | 7 | 473 | CC(C)C[C@H](NC(=O)[C@H](CCCNC(=N)N)NC(=O)[C@H](CCC(N)=O)NC(=O)[C@@H](NC(=O)[C@H](C)NC(=O)[C@@H]1CSSC[C@H](NC(=O)[C@H](CCCCN)NC(=O)[C@@H](N)CCCCNC(=O)CC[C@H](NC(=O)CCCCCCCCCCCCCCCCC(=O)O)C(=O)O)C(=O)N[C@@H](CC(N)=O)C(=O)N[C@@H]([C@@H](C)O)C(=O)N[C@@H](C)C(=O)N[C@@H]([C@@H](C)O)C(=O)N1)[C@@H](C)O)C(=O)N[C@@H](C)C(=O)N[C@@H](CC(N)=O)C(=O)N[C@@H](Cc1ccccc1)C(=O)N[C@@H](CC(C)C)C(=O)N[C@H](C(=O)N[C@@H](Cc1c[nH]cn1)C(=O)N[C@@H](CO)C(=O)N[C@@H](CO)C(=O)N[C@@H](CC(N)=O)C(=O)N[C@@H](CC(N)=O)C(=O)N[C@@H](Cc1ccccc1)C(=O)NCC(=O)N1CCC[C@H]1C(=O)NC(C)(C)C(=O)N[C@@H](CC(C)C)C(=O)N1CCC[C@H]1C(=O)N1CCC[C@H]1C(=O)N[C@H](C(=O)N[C@@H](CC(N)=O)C(=O)N[C@H](C(=O)NCC(=O)N[C@@H](CO)C(=O)N[C@@H](CC(N)=O)C(=O)N[C@H](C(=O)N[C@@H](Cc1ccc(O)cc1)C(N)=O)[C@@H](C)O)C(C)C)[C@@H](C)O)C(C)C [Peptide 106, K(γE-C18diacid)K[CNTATC]ATQRLANFLVHSSNNFGP(Aib)LPPTNVGSNTY-amide] (H-K([γGlu-C18 diacid])KCNTATCATQRLANFLVHSSNNFGP[Aib]LPPTNVGSNTY-NH2; disulfide 3-8; N-terminus assumed)
26300 | 25 | 1070 | CC(C)C[C@H](NC(=O)[C@H](CCCNC(=N)N)NC(=O)[C@H](CCC(N)=O)NC(=O)[C@@H](NC(=O)[C@H](C)NC(=O)[C@@H]1CSSC[C@H](NC(=O)[C@H](CCCCN)NC(=O)[C@@H](N)CCCCNC(=O)CC[C@H](NC(=O)CCCCCCCCCCCCCCCCC(=O)O)C(=O)O)C(=O)N[C@@H](CC(N)=O)C(=O)N[C@@H]([C@@H](C)O)C(=O)N[C@@H](C)C(=O)N[C@@H]([C@@H](C)O)C(=O)N1)[C@@H](C)O)C(=O)N[C@@H](C)C(=O)N[C@@H](CC(N)=O)C(=O)N[C@@H](Cc1ccccc1)C(=O)N[C@@H](CC(C)C)C(=O)N[C@@H](CCCNC(=N)N)C(=O)N[C@@H](Cc1c[nH]cn1)C(=O)N[C@@H](CO)C(=O)N[C@@H](CO)C(=O)N[C@@H](CC(N)=O)C(=O)N[C@@H](CC(N)=O)C(=O)N[C@@H](Cc1ccccc1)C(=O)NCC(=O)N1CCC[C@H]1C(=O)NC(C)(C)C(=O)N[C@@H](CC(C)C)C(=O)N1CCC[C@H]1C(=O)N1CCC[C@H]1C(=O)N[C@H](C(=O)N[C@@H](CC(N)=O)C(=O)N[C@H](C(=O)NCC(=O)N[C@@H](CO)C(=O)N[C@@H](CC(N)=O)C(=O)N[C@H](C(=O)N[C@@H](Cc1ccc(O)cc1)C(N)=O)[C@@H](C)O)C(C)C)[C@@H](C)O [Peptide 107, K(γE-C18diacid)K[CNTATC]ATQRLANFLRHSSNNFGP(Aib)LPPTNVGSNTY-amide] (H-K([γGlu-C18 diacid])KCNTATCATQRLANFLRHSSNNFGP[Aib]LPPTNVGSNTY-NH2; disulfide 3-8; N-terminus assumed)
